Experimental data from patent publication US7423054B2, “Therapeutic pyrazolo[3,4-b]pyridines and indazoles” (Warner Lambert Company LLC, priority 2004, dated 2008).
Where a name gives a salt, the structure may show the parent alone.

Key:
[1] = biological target: T1, human norepinephrine transporter (hNET) (Homo sapiens, UniProt P23975); assay: hNET receptor binding ([125I]-RTI-55 displacement, membranes of transfected HEK-293 cells); details: HEK-293 membranes, Ki from IC50 by Cheng-Prusoff, read-out: NET Ki
T1 construct: expressed in transfected cells; host or cells: HEK-293 cells (membrane preparation)
From the text: (§1) The ability of the compounds of the present invention to inhibit a norepinephrine transporter and/or a serotonin transporter can be determined using conventional radioligand receptor transport assays. The receptors can be heterologously expressed in cell lines and experiments conducted in membrane preparations from the cell lines that express a norepinephrine transporter and/or a serotonin transporter.
(§2) Cell pastes of HEK-293 cells transfected with a human norepinephrine transporter cDNA were prepared. The cell pastes were resuspended in 400 to 700 ml of Krebs-HEPES assay buffer (25 mM HEPES, 122 mM NaCl, 3 mM KCl, 1.2 mM MgSO4, 1.3 mM CaCl2, and 11 mM glucose, pH 7.4) with a Polytron homogenizer at setting 7 for 30 seconds. Aliquots of membranes (5 mg/ml protein) were stored in liquid nitrogen until used.
The binding assay was set up in Beckman deep-well polypropylene plates with a total volume of 250 μl containing: test compound (10^−5M to 10^−12M), cell membranes, and 50 pM [^125I]-RTI-55 (Perkin Elmer, NEX-272; specific activity 2200 Ci/mmol). The reaction was incubated by gentle agitation for 90 minutes at room temperature and was terminated by filtration through Whatman GF/C filter plates using a Brandel 96-well plate harvester. Scintillation fluid (100 μl) was added to each well, and bound [^125I]-RTI-55 was determined using a Wallac Trilux Beta Plate Counter. Test compounds were run in duplicate, and specific binding was defined as the difference between binding in the presence and absence of 10 μM desipramine.
Excel and GraphPad Prism software were used for data calculation and analysis. IC50 values were converted to Ki values using the Cheng-Prusoff equation. The Ki values (nM) for the hNET are reported below in Table 11.

[2] = biological target: T2, human serotonin transporter (hSERT) (Homo sapiens, UniProt P31645); assay: hSERT receptor binding ([125I]-RTI-55 displacement, membranes of transfected HEK-293 cells); details: HEK-293 membranes, Ki from IC50 by Cheng-Prusoff, read-out: SERT Ki
T2 construct: expressed in transfected cells; host or cells: HEK-293 cells (membrane preparation)
Experimental: as §1
as §2, with “serotonin” for “norepinephrine”, “Setting” for “setting”, “(˜2.5” for “(5”
Assays were set up in FlashPlates pre-coated with 0.1% PEI in a total volume of 250 μl containing: test compound (10^−5M to 10^−12M), cell membranes, and 50 pM [^125I]-RTI-55 (Perkin Elmer, NEX-272; specific activity 2200 Ci/mmol). The reaction was incubated and gently agitated for 90 minutes at room temperature, and terminated by removal of assay volume. Plates were covered, and bound [^125I]-RTI-55 was determined using a Wallac Trilux Beta Plate Counter. Test compounds were run in duplicate, and specific binding was defined as the difference between binding in the presence and absence of 10 μM citalopram.
Excel and GraphPad Prism software were used for data calculation and analysis. IC50 values were converted to Ki values using the Cheng-Prusoff equation. The Ki values (nM) for the hSERT are reported below in Table 11: […]

T1 sequence (P23975 whole entry): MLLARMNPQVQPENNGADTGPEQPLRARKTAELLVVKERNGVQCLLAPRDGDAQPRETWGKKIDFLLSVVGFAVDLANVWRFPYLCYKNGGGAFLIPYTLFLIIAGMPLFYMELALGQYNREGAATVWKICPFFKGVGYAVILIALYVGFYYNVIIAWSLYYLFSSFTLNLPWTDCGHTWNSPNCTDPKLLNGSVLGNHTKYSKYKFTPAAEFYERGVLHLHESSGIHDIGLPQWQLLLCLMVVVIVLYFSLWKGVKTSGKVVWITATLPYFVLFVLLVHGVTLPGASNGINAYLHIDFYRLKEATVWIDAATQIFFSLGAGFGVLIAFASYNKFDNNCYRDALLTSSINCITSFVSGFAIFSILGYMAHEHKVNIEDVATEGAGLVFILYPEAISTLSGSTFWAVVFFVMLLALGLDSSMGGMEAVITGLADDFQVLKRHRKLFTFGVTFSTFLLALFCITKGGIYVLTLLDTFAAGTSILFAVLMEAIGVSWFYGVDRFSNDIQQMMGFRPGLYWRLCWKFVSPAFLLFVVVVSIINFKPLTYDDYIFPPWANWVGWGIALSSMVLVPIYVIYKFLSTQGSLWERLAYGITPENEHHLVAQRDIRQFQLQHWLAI
T2 sequence (P31645 whole entry): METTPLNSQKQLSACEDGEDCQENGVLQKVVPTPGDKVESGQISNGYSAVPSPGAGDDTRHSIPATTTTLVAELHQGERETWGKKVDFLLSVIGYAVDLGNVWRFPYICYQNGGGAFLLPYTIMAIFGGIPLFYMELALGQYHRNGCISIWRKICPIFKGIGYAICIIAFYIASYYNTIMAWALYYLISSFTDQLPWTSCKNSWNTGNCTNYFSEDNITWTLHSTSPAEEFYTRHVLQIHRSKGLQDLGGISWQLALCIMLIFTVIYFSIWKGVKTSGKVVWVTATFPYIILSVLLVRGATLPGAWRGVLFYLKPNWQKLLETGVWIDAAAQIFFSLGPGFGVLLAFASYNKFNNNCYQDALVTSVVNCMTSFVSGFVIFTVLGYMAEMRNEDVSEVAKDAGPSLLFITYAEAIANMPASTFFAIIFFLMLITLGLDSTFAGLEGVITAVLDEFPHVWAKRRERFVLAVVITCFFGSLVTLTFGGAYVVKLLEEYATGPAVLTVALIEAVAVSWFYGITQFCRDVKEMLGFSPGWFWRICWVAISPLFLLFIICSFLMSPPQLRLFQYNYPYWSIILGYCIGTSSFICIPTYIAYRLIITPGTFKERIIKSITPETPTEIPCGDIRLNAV

`Fc1ccc(-n2nc(OC3CCNCC3)c3ccccc32)cc1F` [Example 34, 1-(3,4-Difluoro-phenyl)-3-(piperidin-4-yloxy)-1H-indazole hydrochloride] gave a Ki [1] of 30 nM and a Ki [2] of 81 nM.
In the case of `Fc1ccc(-n2nc(OC[C@@H]3CNCCO3)c3c(F)cccc32)c(F)c1` [Example 94, (S)-1-(2,4-Difluoro-phenyl)-4-fluoro-3-(morpholin-2-ylmethoxy)-1H-indazole hydrochloride], the Ki [1] is reported as 40.2 nM and the Ki [2] is reported as 2850 nM.
`Fc1ccc(-n2nc(OC[C@H]3CCCNC3)c3ccccc32)cc1F` [Example 33, (S)-1-(3,4-Difluoro-phenyl)-3-(piperidin-3-ylmethoxy)-1H-indazole hydrochloride] showed a Ki [1] of 19.2 nM and a Ki [2] of 198 nM.
Work on `Cc1ccc2c(OCC3CCCNC3)nn(-c3ccccc3F)c2c1` (stereo not shown) [Example 74, 1-(2-Fluoro-phenyl)-6-methyl-3-(piperidin-3-ylmethoxy)-1H-indazole hydrochloride] yielded a Ki [1] of 60.5 nM and a Ki [2] of 792 nM.
In the case of `Cc1cccc2c(OC3CCNCC3)nn(-c3ccccc3)c12` [Example 59, 7-Methyl-1-phenyl-3-(piperidin-4-yloxy)-1H-indazole hydrochloride], the Ki [1] is reported as 69.1 nM and the Ki [2] is reported as 32.7 nM.
For `Fc1ccc(-n2nc(OC[C@H]3CCCNC3)c3cc(F)ccc32)c(F)c1` [Example 49, (S)-(−)-1-(2,4-Difluorophenyl)-5-fluoro-3-(piperidin-3-ylmethoxy)-1H-indazole hydrochloride], the Ki [1] was 98.5 nM and the Ki [2] was 20.5 nM.
`Fc1ccccc1-n1nc(O[C@@H]2CCCN2)c2ccccc21` [Example 13, (R)-(+)-1-(2-Fluorophenyl)-3-(pyrrolidin-2-yloxy)-1H-indazole maleate] showed a Ki [1] of 131 nM and a Ki [2] of 5290 nM.
`Fc1ccc(-n2nc(OC[C@H]3CCCNC3)c3cc(F)ccc32)cc1` [Example 80, (S)-5-Fluoro-1-(4-fluoro-phenyl)-3-(piperidin-3-ylmethoxy)-1H-indazole hydrochloride] showed a Ki [1] of 15 nM and a Ki [2] of 23.9 nM.
With `Cc1ccc2c(OC3CCNCC3)nn(-c3ccccc3)c2c1` [Example 71, 6-Methyl-1-phenyl-3-(piperidin-4-yloxy)-1H-indazole hydrochloride] the Ki [1] was 95.5 nM and the Ki [2] was 20.5 nM.
In the case of `Fc1ccccc1-n1nc(OC[C@@H]2CCNC2)c2ccccc21` [Example 11, (R)-1-(2-Fluoro-phenyl)-3-(pyrrolidin-3-ylmethoxy)-1H-indazole hydrochloride], the Ki [1] is reported as 14 nM and the Ki [2] is reported as 279 nM.
With `Fc1ccc(F)c(-n2nc(OC3CCNCC3)c3cc(F)ccc32)c1` [Example 39, 1-(2,5-Difluoro-phenyl)-5-fluoro-3-(piperidin-4-yloxy)-1H-indazole hydrochloride] the Ki [1] was 9.57 nM and the Ki [2] was 34.4 nM.
Work on `Fc1cccc(-n2nc(OC3CCNCC3)c3cc(F)ccc32)c1` [Example 77, 5-Fluoro-1-(3-fluoro-phenyl)-3-(piperidin-4-yloxy)-1H-indazole hydrochloride] yielded a Ki [1] of 24.8 nM and a Ki [2] of 49.5 nM.
With `Fc1ccc(-n2nc(OC[C@H]3CCCNC3)c3c(F)cccc32)c(F)c1` [Example 89, (S)-1-(2,4-Difluoro-phenyl)-4-fluoro-3-(piperidin-3-ylmethoxy)-1H-indazole hydrochloride] the Ki [1] was 22.4 nM and the Ki [2] was 403 nM.
`Fc1ccc(F)c(-n2nc(OC3CCNCC3)c3cc(Cl)ccc32)c1` [Example 58, 5-Chloro-1-(2,5-difluoro-phenyl)-3-(piperidin-4-yloxy)-1H-indazole hydrochloride] was tested, and the Ki [1] was 56 nM and the Ki [2] was 134 nM.
`Fc1ccc(-n2nc(OC3CCNCC3)c3ccccc32)c(F)c1` [Example 10, 1-(2,4-Difluoro-phenyl)-3-(piperidin-4-yloxy)-1H-indazole hydrochloride] gave a Ki [1] of 14.3 nM and a Ki [2] of 36.1 nM.
In the case of `c1ccc(-n2nc(OC[C@H]3CCNC3)c3ccccc32)cc1` [Example 22, (S)-1-Phenyl-3-(pyrrolidin-3-ylmethoxy)-1H-indazole hydrochloride], the Ki [1] is reported as 25.7 nM and the Ki [2] is reported as 68.2 nM.
In the case of “(S)-1-(2,6-Difluoro-phenyl)-3-(morpholin-2-ylmethoxy)-1H-indazole hydrochloride [Example 24]”, the Ki [1] is reported as 9.65 nM and the Ki [2] is reported as 5430 nM.
`Fc1cccc(-n2nc(OC3CCNCC3)c3c(F)cccc32)c1` [Example 81, 4-Fluoro-1(3-fluoro-phenyl)-3-(piperidin-4-yloxy)-1H-indazole hydrochloride] showed a Ki [1] of 49.8 nM and a Ki [2] of 449 nM.
For `Fc1cccc(F)c1-n1nc(OC2CCNCC2)c2ccccc21` [Example 36, 1-(2,6-Difluoro-phenyl)-3-(piperidin-4-yloxy)-1H-indazole hydrochloride], the Ki [1] was 5.16 nM and the Ki [2] was 82.7 nM.
Work on `c1ccc(-n2nc(OCC3CCNCC3)c3ccccc32)cc1` (racemic) [Example 17, (±)-1-Phenyl-3-(piperidin-4-ylmethoxy)-1H-indazole hydrochloride] yielded a Ki [1] of 151 nM and a Ki [2] of 28 nM.
For `c1ccc(-n2nc(OC[C@H]3CCCNC3)c3ccccc32)nc1` [Example 44, (S)-(−)-3-(Piperidin-3-ylmethoxy)-1-pyridin-2-yl-1H-indazole maleate], the Ki [1] was 100 nM and the Ki [2] was 365 nM.
`c1ccc(-n2nc(OC[C@H]3CCCNC3)c3cccnc32)cc1` [Example 104, (S)-(−)-1-Phenyl-3-(piperidin-3-ylmethoxy)-1H-pyrazolo[3,4-b]pyridine hydrochloride] gave a Ki [1] of 89 nM and a Ki [2] of 1580 nM.
Molecule `Fc1cccc(F)c1-n1nc(OC2CCNCC2)c2c(F)cccc21` [Example 109, 1-(2,6-Difluoro-phenyl)-4-fluoro-3-(piperidin-4-yloxy)-1H-indazole hydrochloride] has a Ki [1] of 46.2 nM and a Ki [2] of 279 nM.
`Fc1ccc(-n2nc(OC[C@@H]3CCNC3)c3c(F)cccc32)c(F)c1` [Example 92, (R)-1-(2,4-Difluoro-phenyl)-4-fluoro-3-(pyrrolidin-3-ylmethoxy)-1H-indazole hydrochloride] gave a Ki [1] of 28.5 nM and a Ki [2] of 126 nM.
In the case of `Fc1ccccc1-n1nc(OC2CCNCC2)c2cccc(C(F)(F)F)c21` [Example 65, 1-(2-fluorophenyl)-3-(piperidin-4-yloxy)-7-(trifluoromethyl)-1H-indazole hydrochloride], the Ki [1] is reported as 4330 nM and the Ki [2] is reported as 81.2 nM.
With `Fc1cc2c(OCC3CCCNC3)nn(-c3ccccc3)c2cc1F` (stereo not shown) [Example 86, 5,6-Difluoro-1-phenyl-3-(piperidin-3-ylmethoxy)-1H-indazole hydrochloride] the Ki [1] was 114 nM and the Ki [2] was 101 nM.
For `Fc1cccc(-n2nc(OCC3CCCNC3)c3ccccc32)c1` (racemic) [Example 66, (±)-1-(3-Fluoro-phenyl)-3-(piperidin-3-ylmethoxy)-1H-indazole hydrochloride], the Ki [1] was 16.9 nM and the Ki [2] was 120 nM.
`Cc1ccc2c(OC3CCNCC3)nn(-c3ccccc3F)c2c1` [Example 72, 1-(2-Fluoro-phenyl)-6-methyl-3-(piperidin-4-yloxy)-1H-indazole hydrochloride] gave a Ki [1] of 27.4 nM and a Ki [2] of 9.76 nM.
`Fc1ccc(F)c(-n2nc(OC[C@@H]3CNCCO3)c3c(F)cccc32)c1` [Example 95, (S)-1-(2,5-Difluoro-phenyl)-4-fluoro-3-(morpholin-2-ylmethoxy)-1H-indazole hydrochloride] showed a Ki [1] of 5.47 nM and a Ki [2] of 3470 nM.
For `Clc1ccc2c(OC3CCNCC3)nn(-c3ccccc3)c2c1` [Example 64, 6-Chloro-1-phenyl-3-(piperidin-4-yloxy)-1H-indazole hydrochloride], the Ki [1] was 512 nM and the Ki [2] was 272 nM.
Work on `Fc1cc2c(OCC3CCCNC3)nn(-c3ccccc3F)c2cc1F` (stereo not shown) [Example 76, 5,6-Difluoro-1-(2-fluoro-phenyl)-3-(piperidin-3-ylmethoxy)-1H-indazole hydrochloride] yielded a Ki [1] of 40.4 nM and a Ki [2] of 158 nM.
Work on `Fc1ccc(-n2nc(OC[C@@H]3CNCCO3)c3ccccc32)c(F)c1` [Example 3, (S)-(+)-1-(2,4-Difluorophenyl)-3-(morpholin-2-ylmethoxy)-1H-indazole maleate] yielded a Ki [1] of 3.4 nM and a Ki [2] of 832 nM.
